Measured values from patent US7977387B2, “Aminobenzophenone compounds” (Leo Pharma A/S, priority 2003, dated 2011).

Columns and labels:
TNF-α = assay: Inhibition of TNF-α secretion in LPS stimulated peripheral blood mononuclear cells; type: cell-based; details: PBMC; LPS stimulated human peripheral blood mononuclear cells, 18 hours, ELISA; read-out: The median inhibition concentration (IC50, nM) of TNF-α
Method: (§1) To study the effect of compounds of the present invention in vitro, the inhibition of IL-1β and TNF-α secretion was determined using the following procedure:
(§2) Cytokine production was measured in the media from lipopolysaccharide (LPS) stimulated peripheral blood mononuclear cells. The mononuclear cells were isolated from human peripheral blood by Lymphoprep® (Nycomed, Norway) fractionation and suspended in RPMI 1640 (growth medium) with foetal calf serum (FCS, 2%), at a concentration of 5×10^5 cells/ml. The cells were incubated in 24-well tissue culture plates in 1 ml aliquots. Test compounds were dissolved in dimethylsulfoxide (DMSO, 10 mM) and were diluted with the medium. Compounds were added to the cells for 30 minutes, then LPS ([…] final concentration) was added. The plates were incubated for 18 hours, and the concentration of IL-β and TNF-α in the medium was determined by enzyme-linked immunosorbent assays. The median inhibitory concentrations (IC50) of the compounds were calculated.

IL-1β = assay: Inhibition of IL-1β secretion in LPS stimulated peripheral blood mononuclear cells; type: cell-based; details: PBMC; LPS stimulated human peripheral blood mononuclear cells, 18 hours, ELISA; read-out: The median inhibition concentration (IC50, nM) of IL-1β
Method: as §1, §2

SMILES | IC50 (TNF-α) [nM] | IC50 (IL-1β) [nM]
COc1ccc(C(=O)NCCO)cc1C(=O)c1ccc(Nc2ccccc2)cc1Cl [Compound 195, 3-(2-Chloro-4-phenylamino-benzoyl)-N-(2-hydroxy-ethyl)-4-methoxy-benzamide] | 1 | 2.2
COCCNC(=O)c1ccc(C)c(C(=O)c2ccc(Nc3ccc(F)cc3C)cc2Cl)c1 [Compound 106, 3-[2-Chloro-4-(4-fluoro-2-methyl-phenylamino)benzoyl]-N-(2-methoxyethyl)-4-methylbenzamide] | 1 | 2
COc1ccc(COC(C)=O)cc1C(=O)c1ccc(Nc2ccc(F)cc2F)cc1Cl [Compound 336, Acetic acid 3-[2-chloro-4-(2,4-difluoro-phenylamino)-benzoyl]-4-methoxy-benzyl ester] | 2 | 5
COCCOCC(=O)Nc1ccc(C)c(C(=O)c2ccc(Nc3ccc(F)cc3F)cc2Cl)c1 [Compound 243, N-{3-[2-Chloro-4-(2,4-difluoro-phenylamino)-benzoyl]-4-methyl-phenyl}-2-(2-methoxy-ethoxy)-acetamide] | 1.3 | 2.8
Cc1ccc(C(=O)NCC(F)(F)C(F)(F)F)cc1C(=O)c1ccc(Nc2ccc(F)cc2F)cc1Cl [Compound 154, 3-[2-Chloro-4-(2,4-difluoro-phenylamino)-benzoyl]-4-methyl-N-(2,2,3,3,3-pentafluoro-propyl)-benzamide] | 2.5 | 3.2
CCOC(=O)CNC(=O)CNC(=O)c1ccc(OC)c(C(=O)c2ccc(Nc3c(F)cccc3F)cc2Cl)c1 [Compound 183, (2-{3-[2-Chloro-4-(2,6-difluoro-phenylamino)-benzoyl]-4-methoxy-benzoylamino}-acetylamino)-acetic acid ethyl ester] | 0.7 | 2
COCCC(=O)Nc1ccc(C)c(C(=O)c2ccc(Nc3ccc(F)cc3F)cc2Cl)c1 [Compound 241, N-{3-[2-Chloro-4-(2,4-difluoro-phenylamino)-benzoyl]-4-methyl-phenyl}-3-methoxy-propionamide] | 0.3 | 1.1
COc1ccc(C(=O)NCCO)cc1C(=O)c1ccc(Nc2ccc(F)cc2)cc1Cl [Compound 194, 3-[2-Chloro-4-(4-fluoro-phenylamino)-benzoyl]-N-(2-hydroxy-ethyl)-4-methoxy-benzamide] | 0.3 | 0.6
Cc1ccc(C(=O)NCCO)cc1C(=O)c1ccc(Nc2cccc(F)c2)cc1Cl [Compound 193, 3-[2-Chloro-4-(3-fluoro-phenylamino)-benzoyl]-N-(2-hydroxy-ethyl)-4-methyl-benzamide] | 2.5 | 4

Further molecules by falling IC50 (TNF-α), results first:

IC50 (TNF-α) [nM] | IC50 (IL-1β) [nM] | SMILES
0.6 | 0.6 | Cc1ccc(NC(=O)CCS(C)(=O)=O)cc1C(=O)c1ccc(Nc2ccc(F)cc2F)cc1Cl [Compound 252, N-{3-[2-Chloro-4-(2,4-difluoro-phenylamino)-benzoyl]-4-methyl-phenyl}-3-methanesulfonyl-propionamide]
0.5 | 1.4 | CCC(=O)Nc1ccc(C)c(C(=O)c2ccc(Nc3ccc(F)cc3F)cc2Cl)c1 [Compound 242, N-{3-[2-Chloro-4-(2,4-difluoro-phenylamino)-benzoyl]-4-methyl-phenyl}-propionamide]
0.5 | 1.3 | Cc1ccc(NC(=O)CCN2CCOCC2)cc1C(=O)c1ccc(Nc2ccc(F)cc2F)cc1Cl [Compound 244, N-{3-[2-Chloro-4-(2,4-difluoro-phenylamino)-benzoyl]-4-methyl-phenyl}-3-morpholin-4-yl-propionamide]
0.2 | 0.5 | CCOC(=O)CNC(=O)CNC(=O)c1ccc(C)c(C(=O)c2ccc(Nc3ccc(Cl)cc3F)cc2Cl)c1 [Compound 122, (2-{3-[2-Chloro-4-(4-chloro-2-fluoro-phenylamino)-benzoyl]-4-methyl-benzoylamino}-acetylamino)-acetic acid ethyl ester]
